Source: PMC10609143, “Inhibitory Mechanisms of Lekethromycin in Dog Liver Cytochrome P450 Enzymes Based on UPLC-MS/MS Cocktail Method” (Molecules, 2023)
Like-named read-outs stand apart in the source and are kept apart here.

Assays:
CYP2A6 [1] = assay: Enzyme kinetic study of probe substrate in dog liver microsomes; type: in vitro ADME
Description: (§4) The CYP450 enzymatic activities were characterized by their probe substrate reactions. […] NADPH was added to initiate the reaction after a 5 min preincubation period at 37 °C in a thermos shaker. Of note, the volume of the final organic solvent in the incubation system should be below <1% (v/v) [21]. All experiments were performed in triplicate.

CYP2A6 [2] = test system: CYP2A6; set-up: method as in PMID 11307970; details: dog liver microsomes, literature; cited from earlier work
CYP3A4 [3] = details: dog liver microsomes, literature; cited from earlier work
CYP3A4 [4] = details: rat; cited from earlier work
CYP3A4 [5] = details: mini-pig; cited from earlier work
[6] = Enzyme kinetic study of probe substrate in dog liver microsomes; type: in vitro ADME; details: pH 7.4, probe testosterone (6β-hydroxylation), 15 min, 0.2 mg/mL, n = 3, read-out: Km (Michaelis–Menten constant)
Description: (§1) The CYP450 enzymatic activities were characterized by their probe substrate reactions. Incubation mixtures were prepared in a total volume of 200 μL, which consisted of PBS (pH = 7.4), NADPH, probe substrates, and various concentrations of tested compounds. NADPH was added to initiate the reaction after a 5 min preincubation period at 37 °C in a thermos shaker. Of note, the volume of the final organic solvent in the incubation system should be below <1% (v/v). All experiments were performed in triplicate.
(§2) The Vmax and Km were calculated using GraphPad Prism v.8.0.2 (GraphPad software Inc., San Diego, CA, USA) via the Michaelis–Menten kinetic model. In addition, incubation times of 0–60 min were examined for mixed probe substrates. Various DLM protein concentrations (0.05–1 mg/mL) in the incubation mixture were carried out.
(§3) Then, 400 μL of cool ACN containing the 20 μL internal standard was added to terminate the reaction. Samples were vortexed for 2 min and centrifuged at 14,000 rpm for 10 min (4 °C). Next, the supernatant was steamed under nitrogen (40 °C) until dry. Then, it was dissolved with 200 µL of ACN: H2O = 80:20 (v/v). Finally, after filtering with a 0.22 μm membrane, an aliquot of 5 µL was injected into the UPLC-MS/MS for analysis.

CYP3A4 [7] = assay: as above; type: in vitro ADME; details: testosterone 6β-hydroxylation, n = 3
Description: as §1, §2, §3

CYP1A2 = test system: CYP1A2; set-up: method as in PMID 12433797; details: in vitro drug metabolism studies; cited from earlier work
CYP2D6 = details: in vitro drug metabolism studies; cited from earlier work
[8] = substrate: CCOc1ccc(NC(C)=O)cc1; assay: cells, lysate or membranes named; details: other: phenacetin O-deethylation, dog liver microsomes, 15 min, 0.2 mg/mL, n = 3; pH 7.4
[9] = substrate: CC(NC(C)(C)C)C(=O)c1cccc(Cl)c1; assay: Enzyme kinetic study of probe substrate in dog liver microsomes; type: in vitro ADME; details: other: bupropion hydroxylation, 15 min, 0.2 mg/mL, n = 3, pH 7.4
Description: as §4

[10] = substrate: COc1ccc2c(c1)[C@]13CCCC[C@@H]1[C@H](C2)N(C)CC3; assay: cells, lysate or membranes named; details: other: dextromethorphan O-demethylation, dog liver microsomes, 15 min, 0.2 mg/mL, n = 3; pH 7.4
Description: as §4

## O=c1ccc2ccccc2o1 [CAN, coumarin]
CYP2A6 [1]; coumarin hydroxylation, n = 3
  Vmax (maximum rate of an enzyme-catalyzed reaction): 0.034 nmol/min/mg protein
CYP2A6 [1]; pH 7.4, probe coumarin (hydroxylation), 15 min, 0.2 mg/mL, n = 3, read-out: Km (Michaelis–Menten constant)
  Km at 15 min: 0.41 µM
CYP2A6 [2]
  Km: 2 to 4.3 µM
  Vmax: 1488–1656 pmol/min/mg/microsomal protein

## C[C@]12CC[C@H]3[C@@H](CCC4=CC(=O)CC[C@@]43C)[C@@H]1CC[C@@H]2O [TS, testosterone]
CYP3A4 [3]
  Km: 192 µM
  Vmax: 68–180 pmol/min/mg/microsomal protein
CYP3A4 [4]
  Km: 84 µM
CYP3A4 [5]
  Km: 79 µM
[6]
  Km at 15 min: 85.2 µM
CYP3A4 [7]
  Vmax (maximum rate of an enzyme-catalyzed reaction): 1.49 nmol/min/mg protein

## CCOc1ccc(NC(C)=O)cc1 [PH, phenacetin]
CYP1A2
  Km: 10 to 50 µM

## COc1ccc2c(c1)[C@]13CCCC[C@@H]1[C@H](C2)N(C)CC3 [DEX, dextromethorphan]
CYP2D6
  Km: 2 to 10 µM

B1: CYP1A2 (Canis lupus familiaris) (protein)
chain: MALSQMATGLLLASTIFCLILWVVKAWQPRLPKGLKSPPGPWGWPLLGNVLTLGKSPHLALSRLSQRYGDVLQIRIGSTPVLVLSGLDTIRQALVRQGDDFKGRPDLYSLSLITDSQSMSFSPDSGPVWAAGRRLAQNALNTFSIASDPASSCSCYLEEHVSKEAEALLSRLQEQMAEVGRFDPYNQVLLSVANVIGAMCFGHHFSQRSEEMLPLLMSSSDFVETVSSGNPLDFFPILQYMPNSALQRFKNFNQTFVQSLQKIVQEHYQDFDERSVQDITGALLKHNEKSSRASDGHIPQEKIVNLINDIFGAGFDTVTTAISWSLMYLVANPEIQRQIQKELDTVIGRARQPRLSDRPQLPLMEAFILEIFRHTSFVPFTIPHSTTKDTTLKGFYIPKECCVFINQWQVNHDQQVWGDPFAFRPERFLTADGTTINKTLSEKVMLFGMGKRRCIGEVLAKWEIFLFLAILLQRLEFSVPAGVKVDLTPIYGLTMKHTRCEHVQARPRFSIK
[8]
  Km: 5.39 µM
  Vmax: 0.00022 µmol/min/mg

B2: CYP2B6 (Canis lupus familiaris) (protein)
chain: MELSVLLLLALLTGLLLLMARGHPKAYGHLPPGPRPLPILGNFLQMDRKGLLKSFLRLQEKYGDVFTVYLGPRRTVMLCGIDAIREALVDNAEAFSGRGKIAVVEPVFQGYGVVFANGERWKTLRRFSLATMRDFGMGKRSVEERIQEEAQCLVEELRKTEGVLQDPTFFFHSMTANIICSIVFGKRFGYKDPEFLRLMNLFYVSFALISSFSSQMFELFHSFLKYFPGTHRQVYNNLQEIKAFIARMVEKHRETLDPSAPRDFIDAYLIRMDKEKAEPSSEFHHRNLIDTALSLFFAGTETTSTTLRYGFLLMLKYPHIAERIYKEIDQVIGPHRLPSLDDRAKMPYTDAVIHEIQRFGDLLPIGVPHMVTKDICFRGYIIPKGTEVFPILHSALNDPHYFEKPDVFNPDHFLDANGALKKNEAFIPFSIGKRICLGEGIARMELFLFFTTILQNFSVASPMAPEDIDLTPQEIGVGKLPPVYQISFLSRGGC
notes: from tissue; host or cells: dog liver microsomes (DLM)
[9]
  Km: 9.15 µM
  Vmax: 0.00143 µmol/min/mg

B3: CYP2D6 (Canis lupus familiaris) (protein)
chain: MGLLTGDTLGPLAVAVAIFLLLVDLMHRRRRWATRYPPGPTPVPMVGNLLQMDFQEPICYFSQLQGRFGNVFSLELAWTPVVVLNGLEAVREALVHRSEDTADRPPMPIYDHLGLGPESQGLFLARYGRAWREQRRFSLSTLRNFGLGRKSLEQWVTEEASCLCAAFAEQAGRPFGPGALLNKAVSNVISSLTYGRRFEYDDPRLLQLLELTQQALKQDSGFLREALNSIPVLLHIPGLASKVFSAQKAIITLTNEMIQEHRKTRDPTQPPRHLIDAFVDEIEKAKGNPKTSFNEENLCMVTSDLFIAGMVSTSITLTWALLLMILHPDVQRRVQQEIDEVIGREQLPEMGDQTRMPFTVAVIHEVQRFGDIVPLGVPHMTSRDTEVQGFLIPKGTTLITNLSSVLKDEKVWKKPFRFYPEHFLDAQGHFVKHEAFMPFSAGRRVCLGEPLARMELFLFFTCLLQRFSFSVPAGQPRPSDHGVFTFLKVPAPFQLCVEPR
[10]
  Km: 6.33 µM
  Vmax: 0.00616 µmol/min/mg
